In PubChem BioAssay AID602156 (GNF / Scripps Winzeler lab, 2011):
Where “and” joins values, the source holds several entries; their conditions need not be identical. Equal entries are not always repeated. Calls of active or inactive are those of the source. No rule for the calls is given here.

system: P. yoelii liver stage in HepG2-A16-CD81EGFP, imaging; experiment: exo-erythrocytic parasite development inhibition – imaging, Malaria Box, P. yoelii, HepG2-A16-CD81EGFP, dose response (AID 602156);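 also: infected cells exposed to compound for 48 hours before fixation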

With CCCCCCN(C(=O)c1ccc(C(C)(C)C)cc1)C(CC)c1nc2ccccc2c(=O)n1-c1ccc(F)cc1 (configuration not stated) the IC50 was > 6910 nM (inactive).
With O=C(O)Cn1cnc2nc3n(c2c1=O)CCC3 the IC50 was > 765 nM (inactive).
In the case of CCOC(=O)c1c[nH]c2ccc(OC)cc2c1=O, the IC50 is reported as 293 nM and 135 nM.
For COc1ccc(NC(=O)COc2ccccc2C(C)C)c(OC)c1, the IC50 was > 10000 nM (inactive).
In the case of CCOC(=O)c1ccc(OCC2c3cc(OC)c(OC)cc3CCN2C(=O)c2ccc([N+](=O)[O-])cc2)cc1 (configuration not stated), the IC50 is reported as > 10000 nM (inactive).
Fc1ccc(-c2c[n+]3c(n2-c2ccccc2)SCC3)cc1 was tested, and the IC50 was > 4300 nM (inactive).
For COc1cccc(OC)c1C(=O)Nn1c(-c2cccc(C)c2)nc2ccccc2c1=O, the IC50 was > 10000 nM (inactive).
For CCN(c1ccccc1)S(=O)(=O)c1ccc(F)c(C(=O)Nc2c(C)cccc2C)c1, the IC50 was > 10000 nM (inactive).
With Nc1nonc1-n1nnc(C(=O)NN=Cc2ccc(F)c(Br)c2)c1-c1ccc([N+](=O)[O-])cc1 the IC50 was > 10000 nM (inactive).
For Cc1c(Cl)cccc1N1C(=O)C2C3c4ccccc4C(c4ccccc43)C2C1=O (configuration not stated), the IC50 was > 10000 nM (inactive).
With N#CCSc1nc2ccccc2c2nc(CCc3c[nH]c4ccccc34)nn12 the IC50 was > 10000 nM (inactive).
With O=C(c1cc2nc(-c3ccccc3)cc(C(F)(F)F)n2n1)N1CCN(Cc2ccccc2)CC1 the IC50 was > 10000 nM (inactive).
CCCCn1c(N=Nc2c(O)[nH]c3ccccc23)nc2c1c(=O)[nH]c(=O)n2C was tested, and the IC50 was > 10000 nM (inactive).
CCc1ccccc1NC(C)=O was tested, and the IC50 was > 10000 nM (inactive).
O=C1CC(c2ccccc2)CC2=C1C(c1ccccc1[N+](=O)[O-])Nc1ccccc1N2 (configuration not stated) was tested, and the IC50 was > 10000 nM (inactive).
With COc1ccc(C2CC(=O)C3=C(C2)NC(C)=C(C(=O)OC(C)C)C3c2ccccc2OC)cc1OC (configuration not stated) the IC50 was > 10000 nM (inactive).
For COc1cncc(-c2cncc(-c3ccc(C)cc3)n2)c1, the IC50 was > 10000 nM (inactive).
For COc1cccc(-c2cncc(-c3cncc(OC)c3)n2)c1, the IC50 was > 10000 nM (inactive).
In the case of O=C(C1CC1)N1CCc2cc(Br)cc(S(=O)(=O)N3CCCC3)c21, the IC50 is reported as > 10000 nM (inactive).
With N#Cc1c2c(c(N3CCN(c4ccccn4)CC3)n3c1nc1ccccc13)CCC2 the IC50 was > 10000 nM (inactive).
With CCc1c(C)c(C#N)c2nc3ccccc3n2c1NCc1ccccc1 the IC50 was > 9600 nM (inactive).
In the case of O=C(Nc1ccc(-c2nc3ccc(NC(=O)c4cccc([N+](=O)[O-])c4)cc3[nH]2)cc1)c1cccc([N+](=O)[O-])c1, the IC50 is reported as > 944 nM (inactive).

Point of comparison: Cc1cc(C)nc(N=C(N)Nc2cccc(O)c2)n1, IC50 152 nM. Against it:
- Cc1cc(OC(C)C(=O)N2CCc3ccccc32)ccc1Cl (configuration not stated) — 5.1-fold higher, 776 nM
- CCN(CC)CCCN(Cc1cc2cc(OC)c(OC)cc2[nH]c1=O)C(=S)Nc1cccc(Cl)c1 — within 1.5-fold, 162 nM
- O=C1C2=C(Nc3ccccc3SC2c2ccc(OCc3ccccc3)cc2)c2ccccc21 (configuration not stated) — 2.6-fold lower, 58 nM
- COc1cc(C(=O)NCCc2ccccn2)ccc1OC1CCN(CC(c2ccccc2)c2ccccc2)CC1 — 8.4-fold higher, 1280 nM
- CCC(Sc1nnc(-c2ccc(C)cc2)c(-c2ccc(C)cc2)n1)C(=O)NCCOC (configuration not stated) — 2-fold higher, 303 nM
- NCC(=O)N1CCn2c(nc(-c3ccccc3)c2Nc2ccc3c(c2)OCO3)C1 — within 1.5-fold, 221 nM
- CCOc1ccc(Nc2nc(NCc3ccccc3)c3ccccc3n2)cc1 — 3.2-fold higher, 480 nM
- Oc1c(CN2CCN(Cc3ccc4cccnc4c3O)CC2)ccc2cccnc12 — 1.6-fold lower, 96.6 nM
- Cc1ccc(-c2[nH]n3c(=O)c4c(nc3c2C)CCCC4)cc1 — 13-fold lower, 11.3 nM
- COC(=O)c1c(-c2c(Cl)cccc2Cl)noc1NC(=O)NN1CCCCC1 — 4.3-fold higher, 647 nM
- CCOc1ccc2ncc(S(=O)(=O)c3ccc(OC)cc3)c(N3CCN(C)CC3)c2c1 — 14-fold lower, 10.7 nM
- CCC(/C=C1\Sc2ccc(OC)cc2N1CCCS(=O)(=O)O)=C\c1sc2ccc(OC)cc2[n+]1CCCS(=O)(=O)O — 14-fold lower, 11.2 nM
- C1CCC(NP2(NC3CCCCC3)=NP(NC3CCCCC3)(NC3CCCCC3)=NP(NC3CCCCC3)(NC3CCCCC3)=N2)CC1 — 8.2-fold lower, 18.6 nM
- CCn1c(/C=C/C=C2\N(C)c3ccccc3C2(C)C)[n+](Cc2ccccc2)c2ccccc21 — 22-fold lower, 6.76 nM
- O=C(Nc1ccc(-c2nc3ccccc3[nH]2)cc1)c1ccc(-c2ccc(Cl)cc2)o1 — 44-fold higher, 6650 nM
- COC(=O)C1=C(C)NC2=C(C(=O)CC(c3ccccc3Cl)C2)C1c1ccc([N+](=O)[O-])cc1 (configuration not stated) — 5.5-fold higher, 842 nM
- O=c1c2ccccc2[nH]c2ccc(F)cc12 — within 1.5-fold, 223 nM
- CCCCN(CCCC)S(=O)(=O)c1ccc(NC(=O)c2ccco2)cc1 — 2.5-fold higher, 377 nM
- CCCCc1c(C)[nH]c2c(OC)cccc2c1=O — 3.7-fold higher, 561 nM
- O=[N+]([O-])c1cc(C(F)(F)F)ccc1N1CCCN(C(=S)Nc2ccccc2)CC1 — 15-fold higher, 2230 nM
- CCN(CC)CCCN(Cc1cc2ccc(C)cc2[nH]c1=O)C(=S)Nc1cccc(Cl)c1 — 2.9-fold higher, 448 nM
- c1ccc(CSc2scnc2[P+](c2ccccc2)(c2ccccc2)c2ccccc2)cc1 — 2.2-fold lower, 68.5 nM
- O=C(NC1CC1)C1CCN(c2cccc3c2C(=O)N(Cc2cccc(C(F)(F)F)c2)C3=O)CC1 — 5.2-fold lower, 29.3 nM
- O=C(c1cccs1)N1CCN(c2ccc([N+](=O)[O-])c(NC3CC3)c2)CC1 — 4.6-fold higher, 692 nM
- CCOc1ccc(Nc2nc(NCc3ccco3)c3ccccc3n2)cc1 — within 1.5-fold, 105 nM
- Cc1ccc(-c2c[n+]3c(n2-c2ccccc2)SCC3)cc1 — 7.2-fold higher, 1090 nM
- Brc1ccc(Nc2nc(NCc3ccco3)c3ccccc3n2)cc1 — within 1.5-fold, 163 nM
- Cc1cccc(-c2cc3nc(C)c(C)c(=O)n3[nH]2)c1 — 7.2-fold higher, 1100 nM
- O=C(Nc1ccc2oc(-c3cccc4ccccc34)nc2c1)c1ccc([N+](=O)[O-])o1 — 2.1-fold lower, 72.5 nM
- CCCC(=O)NC(c1ccc(Cl)cc1)c1ccc2cccnc2c1O (configuration not stated) — within 1.5-fold, 190 nM
- CC(=O)N(C1=C(N2CCOCC2)C(=O)c2ccccc2C1=O)c1cccc(Cl)c1 — 4.9-fold higher, 744 nM
- c1ccc(-c2ccc(-c3ccccn3)nc2)nc1 — 3.9-fold lower, 39.4 nM
- CCN(CC)CCCC(C)Nc1c2ccc(Cl)cc2nc2ccc(OC)cc12 (configuration not stated) — within 1.5-fold, 166 nM
- CCN(CC)c1ccc(NC(=O)c2cccs2)cc1 — 2.6-fold higher, 396 nM
- CCOc1ccc2[nH]c(=O)c(CN(CCN(CC)CC)C(=S)NCCCN(CC)CC)cc2c1 — 14-fold higher, 2170 nM
- COc1ccc2cc3[n+](cc2c1OC)CCc1cc2c(cc1-3)OCO2 — 3.6-fold higher, 548 nM
- OC(CNC1CCCCC1)Cn1c2ccccc2c2ccccc21 (configuration not stated) — 26-fold higher, 3920 nM
- COc1ccc(Nc2cc(C)nc(NCc3ccccc3)n2)cc1 — 4.2-fold higher, 636 nM
- CC(=O)N(C)C1=C(N2CCOCC2)C(=O)c2ccccc2C1=O — 1.5-fold higher, 229 nM
- CC(Oc1ccc(Cl)cc1Cl)c1nc(-c2ccc(NC(=O)c3ccco3)cc2)no1 (configuration not stated) — within 1.5-fold, 154 nM
- C=CCc1c(C)[nH]c2ccc(Br)cc2c1=O — within 1.5-fold, 181 nM
- Cc1[nH]c2ccccc2c(=O)c1CC=C(Cl)Cl — within 1.5-fold, 130 nM
- O=C(NC(=C(Cl)Cl)[P+](c1ccccc1)(c1ccccc1)c1ccccc1)c1ccc(F)cc1 — 10-fold lower, 14.5 nM
- CCc1ccccc1N=C1c2c(cccc2[N+](=O)[O-])C(=O)C1C(C)=O (configuration not stated) — 13-fold higher, 2030 nM
- CC1(C)C2CCC(C2)C1(C)NC(=S)NN=Cc1ccccn1 (configuration not stated) — 8.7-fold lower, 17.4 nM
- CCCC(=O)N1CCN(c2nc(Cc3ccccc3)c3c(c2C#N)CC(C)(C)OC3)CC1 — 2.3-fold higher, 348 nM
- CC(C)(C)C1CCc2[nH]c3ccccc3c(=O)c2C1 (configuration not stated) — 1.5-fold lower, 98.3 nM
- CCCCNC(=O)C1CCC(CN(Cc2c(Cl)cccc2Cl)S(=O)(=O)c2ccc(Br)cc2)CC1 (configuration not stated) — within 1.5-fold, 124 nM
- CC1(C)N=C(N)N=C(N)N1c1ccccc1 — 1.5-fold lower, 100 nM
- CN(Cc1ccccc1)C(=O)CSc1nc(NCc2ccccc2)c2ccccc2n1 — 21-fold lower, 7.13 nM
- CCCc1nc2ccc(NC(=O)c3ccccc3F)cc2c(=O)n1Cc1ccc(-c2ccccc2)cc1 — 11-fold higher, 1730 nM
- COc1ccccc1-n1c(C=Cc2cc(Br)ccc2O)nc2ccccc2c1=O — 30-fold higher, 4590 nM
- Cc1cccc(N2C(N)=NC(N)=NC2(C)C)c1 — 36-fold lower, 4.25 nM
- Cc1cc(N)c2ccccc2[n+]1CCCCCCCCCC[n+]1c(C)cc(N)c2ccccc21 — 3.7-fold higher, 566 nM
- O=c1c2ccccc2[nH]c2ccc(I)cc12 — within 1.5-fold, 105 nM
- Cc1ccc(-n2c(-c3ccccc3)cc(C=NNC(=O)c3cccc(O)c3)c2-c2ccccc2)cc1 — 7.5-fold lower, 20.2 nM
- COc1ccc2[nH]c3ccccc3c(=O)c2c1 — within 1.5-fold, 135 nM
- CC(C)NCC(O)Cn1c2ccc(Cl)cc2c2cc(Cl)ccc21 (configuration not stated) — 20-fold higher, 2970 nM
- c1ccc(CNc2nc(Nc3ccccc3)nc3ccccc23)cc1 — within 1.5-fold, 153 nM
- O=C(Nc1ccc(-c2ccc(Cl)cc2)cc1)c1cccs1 — within 1.5-fold, 151 nM
- O=C(NC1CC1)c1ccc(CSCc2ccccc2Cl)o1 — within 1.5-fold, 140 nM
- CCCCCc1ccc(OCCCC[n+]2cccc(C)c2)c(CCCCC)c1 — 4.4-fold lower, 34.6 nM
- COc1ccccc1Nc1nc(NCc2ccccc2)c2ccccc2n1 — 1.7-fold lower, 91.3 nM
- CCCCCC[P+](N(CCC)CCC)(N(CCC)CCC)N(CCC)CCC — 3.1-fold lower, 49.1 nM
- C=CC[N+]1(CC#Cc2cccc3ccccc23)CCCCC1 — 6-fold higher, 908 nM
- CCCCN(CC)CCNC(=O)C1c2ccccc2C(=O)N(Cc2ccc(F)cc2)C1c1ccc(OC)cc1 (configuration not stated) — 1.7-fold lower, 89.1 nM
- Cc1oc2c(c1C(=O)NCC1CCCO1)C(=O)c1ccccc1C2=O (configuration not stated) — within 1.5-fold, 189 nM
- Cc1ccc(CSCc2ccc(C(=O)NC3CC3)o2)cc1 — 3.2-fold lower, 47.3 nM
- COc1ccc(Nc2nc(NCc3ccccc3)c3ccccc3n2)cc1 — 2-fold higher, 305 nM
- COc1ccc(C(NC(=O)c2cccnc2)c2cc(Cl)c3cccnc3c2O)cc1 (configuration not stated) — 3.6-fold higher, 542 nM
- Cc1ccc(N2C(N)=NC(N)=NC2(C)C)cc1 — 15-fold lower, 10 nM
- Cc1nc([P+](c2ccccc2)(c2ccccc2)c2ccccc2)c(SCc2ccccc2)o1 — 4.5-fold lower, 33.5 nM
- Cc1cccc(NC(=S)NC2CC3CCCC(C2)N3CCc2ccccc2)c1 (configuration not stated) — 1.8-fold higher, 277 nM
- CCCCCCCc1cc(O)c2c3c(c(=O)oc2c1)CCC(C)C3 (configuration not stated) — 1.6-fold higher, 247 nM
- CCOC(=O)c1c[nH]c2c3c(ccc2c1=O)CCCC3 — 14-fold lower, 10.8 nM
- c1ccc(OCCOc2ccc(Nc3ccnc4cc5ccccc5cc34)cc2)cc1 — 2.3-fold lower, 67.5 nM
- O=C1C2=C(Nc3ccccc3SC2c2ccco2)c2ccccc21 (configuration not stated) — within 1.5-fold, 113 nM
- N=c1c2c(n(Cc3ccc(Cl)cc3)c3c1CCC3)CCC2 — 1.7-fold lower, 91.1 nM
- CCCCCCOc1ccc(C(C)=NNC2=NCCN2)cc1[N+](=O)[O-] — 5.2-fold higher, 784 nM
- NC(Cc1ccccc1)C(=O)N1CCn2c(nc(-c3ccccc3)c2Nc2ccc3c(c2)OCO3)C1 (configuration not stated) — 82-fold lower, 1.85 nM
- CCOC(=O)c1ccc2[nH]c(-c3ccccc3)cc(=O)c2c1 — 7.6-fold lower, 20 nM
- CC(=O)N(C1=C(N2CCOCC2)C(=O)c2ccccc2C1=O)c1ccc(I)cc1 — 4-fold higher, 602 nM
- c1ccc2c(NCCc3cnc[nH]3)c3ccccc3nc2c1 — 4.6-fold higher, 706 nM
- O=C1C(Nc2ccc(O)cc2)=CC(=NS(=O)(=O)c2cccs2)c2ccccc21 — 1.8-fold lower, 85.6 nM
